Reference: publication PMC5218480 (PLoS ONE, 2017)

System: MV-4-11 cells
Assay: Gene expression microarray analysis (Affymetrix PrimeView) and GSEA
Type: cell-based, human
Design: RFU PODN (11730768_x_at) / Fold change /veh PODN (11730768_x_at) / RFU LINC00158 (11744669_a_at) / Fold change /veh LINC00158 (11744669_a_at) / RFU DUSP10 (11751237_a_at) / Fold change /veh DUSP10 (11751237_a_at) / RFU ID3 (11757404_x_at) / Fold change /veh ID3 (11757404_x_at) / RFU PLEKHG5 (11737974_s_at) / Fold change /veh PLEKHG5 (11737974_s_at) / RFU LRRC4B (11730491_at) / Fold change /veh LRRC4B (11730491_at) / RFU GIMAP4 (11747438_a_at) / Fold change /veh GIMAP4 (11747438_a_at) / RFU KRT8 (11758183_x_at) / Fold change /veh KRT8 (11758183_x_at) / RFU CNN1 (11734310_a_at) / Fold change /veh CNN1 (11734310_a_at) / RFU VPS37D (11726825_at) / Fold change /veh VPS37D (11726825_at) / RFU C10orf10 (11716522_x_at) / Fold change /veh C10orf10 (11716522_x_at) / RFU KIR2DL2 /// KIR2DL4 /// KIR2DL5A /// KIR2DL5B /// KIR2DS1 /// KIR2DS2 /// KIR2DS3 /// KIR2DS4 /// KIR3DL3 /// KIR3DL3 /// KIR3DS1 (11738374_at) / Fold change /veh KIR2DL2 /// KIR2DL4 /// KIR2DL5A /// KIR2DL5B /// KIR2DS1 /// KIR2DS2 /// KIR2DS3 /// KIR2DS4 /// KIR3DL3 /// KIR3DL3 /// KIR3DS1 (11738374_at) / RFU C1QL1 (11718748_at) / Fold change /veh C1QL1 (11718748_at) / RFU TMPRSS4 (11747572_a_at) / Fold change /veh TMPRSS4 (11747572_a_at) / RFU HAMP (11756126_x_at) / Fold change /veh HAMP (11756126_x_at) / RFU RNFT2 (11725882_a_at) / Fold change /veh RNFT2 (11725882_a_at) / RFU NR4A2 (11747474_a_at) / Fold change /veh NR4A2 (11747474_a_at) / RFU ABCC12 (11746883_a_at) / Fold change /veh ABCC12 (11746883_a_at) / RFU TMEM136 (11760407_x_at) / Fold change /veh TMEM136 (11760407_x_at) / RFU CLDN22 /// WWC2 (11732394_at) / Fold change /veh CLDN22 /// WWC2 (11732394_at) / RFU HLA-DPB1 (11760878_x_at) / Fold change /veh HLA-DPB1 (11760878_x_at) / RFU SPINT1 (11716480_a_at) / Fold change /veh SPINT1 (11716480_a_at) / RFU GAP43 (11754022_s_at) / Fold change /veh GAP43 (11754022_s_at) / RFU A4GNT (11735810_at) / Fold change /veh A4GNT (11735810_at) / RFU PRB3 (11715151_x_at) / Fold change /veh PRB3 (11715151_x_at) / RFU TUBB4B (11761932_at) / Fold change /veh TUBB4B (11761932_at) / RFU CAPN14 (11732068_a_at) / Fold change /veh CAPN14 (11732068_a_at) / RFU TMCC2 (11721928_a_at) / Fold change /veh TMCC2 (11721928_a_at) / RFU IRGQ (11745062_a_at) / Fold change /veh IRGQ (11745062_a_at) / RFU FAM174B (11720279_a_at) / Fold change /veh FAM174B (11720279_a_at) / RFU TMPRSS4 (11748680_a_at) / Fold change /veh TMPRSS4 (11748680_a_at) / RFU FAM212B (11763350_a_at) / Fold change /veh FAM212B (11763350_a_at) / RFU PLEKHG5 (11743358_a_at) / Fold change /veh PLEKHG5 (11743358_a_at) / RFU ZSCAN30 (11745921_a_at) / Fold change /veh ZSCAN30 (11745921_a_at) / RFU CMKLR1 (11741424_a_at) / Fold change /veh CMKLR1 (11741424_a_at) / RFU LOC101060620 /// MAPK8IP1 (11723275_at) / Fold change /veh LOC101060620 /// MAPK8IP1 (11723275_at) / RFU SPTSSB (11747773_x_at) / Fold change /veh SPTSSB (11747773_x_at) / RFU PRSS12 (11739890_at) / Fold change /veh PRSS12 (11739890_at) / RFU BIN1 (11741810_x_at) / Fold change /veh BIN1 (11741810_x_at) / RFU WNT11 (11732464_a_at) / Fold change /veh WNT11 (11732464_a_at) / RFU C10orf10 (11716521_a_at) / Fold change /veh C10orf10 (11716521_a_at) / RFU C5orf56 (11738089_at) / Fold change /veh C5orf56 (11738089_at) / RFU CYB561 (11721691_x_at) / Fold change /veh CYB561 (11721691_x_at) / RFU ANKRD19P (11752326_a_at) / Fold change /veh ANKRD19P (11752326_a_at) / RFU OR2T12 /// OR2T33 /// OR2T8 (11738714_s_at) / Fold change /veh OR2T12 /// OR2T33 /// OR2T8 (11738714_s_at) / RFU VCAN (11748164_a_at) / Fold change /veh VCAN (11748164_a_at) / RFU JSRP1 (11732532_at) / Fold change /veh JSRP1 (11732532_at) / RFU KRTAP10-11 (11738290_x_at) / Fold change /veh KRTAP10-11 (11738290_x_at) / RFU MYO3A (11730013_a_at) / Fold change /veh MYO3A (11730013_a_at) / RFU EBF3 (11725865_a_at) / Fold change /veh EBF3 (11725865_a_at) / RFU CAMK2N1 (11719241_x_at) / Fold change /veh CAMK2N1 (11719241_x_at) / RFU C5orf56 (11738088_a_at) / Fold change /veh C5orf56 (11738088_a_at) / RFU OLFML3 (11715873_a_at) / Fold change /veh OLFML3 (11715873_a_at) / RFU LOC100653217 /// NTM (11731650_a_at) / Fold change /veh LOC100653217 /// NTM (11731650_a_at) / RFU MAPK11 (11762145_a_at) / Fold change /veh MAPK11 (11762145_a_at) / RFU FIZ1 (11724087_x_at) / Fold change /veh FIZ1 (11724087_x_at) / RFU OASL (11726364_x_at) / Fold change /veh OASL (11726364_x_at) / RFU SOX15 (11748057_x_at) / Fold change /veh SOX15 (11748057_x_at) / RFU CD79A (11719716_a_at) / Fold change /veh CD79A (11719716_a_at) / RFU HIST1H1D (11736915_at) / Fold change /veh HIST1H1D (11736915_at) / RFU CASKIN2 (11723855_a_at) / Fold change /veh CASKIN2 (11723855_a_at) / RFU LOC730098 (11760151_x_at) / Fold change /veh LOC730098 (11760151_x_at) / RFU OR4N2 (11742367_at) / Fold change /veh OR4N2 (11742367_at) / RFU PRRT2 (11749266_a_at) / Fold change /veh PRRT2 (11749266_a_at) / RFU SNX32 (11753110_a_at) / Fold change /veh SNX32 (11753110_a_at) / RFU CDHR5 (11726645_a_at) / Fold change /veh CDHR5 (11726645_a_at) / RFU RCAN1 (11760418_a_at) / Fold change /veh RCAN1 (11760418_a_at) / RFU FAM167A (11723789_a_at) / Fold change /veh FAM167A (11723789_a_at) / RFU FAM26E (11764081_at) / Fold change /veh FAM26E (11764081_at) / RFU ISYNA1 (11749810_s_at) / Fold change /veh ISYNA1 (11749810_s_at) / RFU ACY1 (11761880_at) / Fold change /veh ACY1 (11761880_at) / RFU 11764098_at / Fold change /veh 11764098_at / RFU SAMD14 (11745864_x_at) / Fold change /veh SAMD14 (11745864_x_at) / RFU NPB (11741838_a_at) / Fold change /veh NPB (11741838_a_at) / RFU TMPRSS6 (11731388_a_at) / Fold change /veh TMPRSS6 (11731388_a_at) / RFU KRTAP10-2 (11738614_at) / Fold change /veh KRTAP10-2 (11738614_at) / RFU ARHGAP8 /// PRR5-ARHGAP8 (11727945_x_at) / Fold change /veh ARHGAP8 /// PRR5-ARHGAP8 (11727945_x_at) / RFU KRTAP5-7 /// NADSYN1 (11734609_at) / Fold change /veh KRTAP5-7 /// NADSYN1 (11734609_at) / RFU RASL12 (11751679_a_at) / Fold change /veh RASL12 (11751679_a_at) / RFU CDKN2B (11736163_a_at) / Fold change /veh CDKN2B (11736163_a_at) / RFU PRF1 (11729649_at) / Fold change /veh PRF1 (11729649_at) / RFU, ZNF638 /// ZNF638-IT1 / Fold change vs veh, ZNF638 /// ZNF638-IT1 / RFU, PANK3 / Fold change vs veh, PANK3 / RFU, SH3YL1 / Fold change vs veh, SH3YL1 / RFU, ZEB2 / Fold change vs veh, ZEB2 / RFU, NRIP1 / Fold change vs veh, NRIP1 / RFU, PTTG1IP / Fold change vs veh, PTTG1IP / RFU, CAPN2 / Fold change vs veh, CAPN2 / RFU, MED14 / Fold change vs veh, MED14 / RFU, SNORA58 / Fold change vs veh, SNORA58 / RFU, C1orf63 / Fold change vs veh, C1orf63 / RFU, LRRFIP1 / Fold change vs veh, LRRFIP1 / RFU, NDUFAF7 / Fold change vs veh, NDUFAF7 / RFU, SLC12A2 / Fold change vs veh, SLC12A2 / RFU, IBTK / Fold change vs veh, IBTK / RFU, ESF1 / Fold change vs veh, ESF1 / Fold change vs veh, TMEM50B / RFU, TAOK1 / Fold change vs veh, TAOK1 / RFU, ACBD3 / Fold change vs veh, ACBD3 / RFU, TMA16 / Fold change vs veh, TMA16 / RFU, RWDD3 / Fold change vs veh, RWDD3 / RFU, BCAT1 / Fold change vs veh, BCAT1 / RFU, EDEM3 / Fold change vs veh, EDEM3 / RFU, TMEM33 / Fold change vs veh, TMEM33 / RFU, WDR75 / Fold change vs veh, WDR75 / RFU, AHCTF1 / Fold change vs veh, AHCTF1 / RFU, TFRC / Fold change vs veh, TFRC / RFU, ZDHHC17 / Fold change vs veh, ZDHHC17 / RFU, NOM1 / Fold change vs veh, NOM1 / RFU, ARL8B / Fold change vs veh, ARL8B / RFU, ZBTB11 / Fold change vs veh, ZBTB11 / RFU, TAMM41 / Fold change vs veh, TAMM41 / RFU, KIAA1704 /// LOC100996395 / Fold change vs veh, KIAA1704 /// LOC100996395 / RFU, ING1 / Fold change vs veh, ING1 / RFU, TRMT61B / Fold change vs veh, TRMT61B / RFU, FUBP3 / Fold change vs veh, FUBP3 / RFU, TP53 / Fold change vs veh, TP53 / RFU, TNKS2 / Fold change vs veh, TNKS2 / RFU, ZFP14 / Fold change vs veh, ZFP14 / RFU, ACTR2 / Fold change vs veh, ACTR2 / RFU, PPP3R1 / Fold change vs veh, PPP3R1 / RFU, PIK3R1 / Fold change vs veh, PIK3R1 / RFU, HNRNPA1 / Fold change vs veh, HNRNPA1 / RFU, RNF170 / Fold change vs veh, RNF170 / RFU, ZNF28 / Fold change vs veh, ZNF28 / RFU, RNGTT / Fold change vs veh, RNGTT / RFU, OGT / Fold change vs veh, OGT / RFU, BRD1 / Fold change vs veh, BRD1 / RFU, MARS / Fold change vs veh, MARS / RFU, ZNF655 / Fold change vs veh, ZNF655 / RFU, FAHD1 / Fold change vs veh, FAHD1 / RFU, BDP1 / Fold change vs veh, BDP1 / RFU, LRRCC1 / Fold change vs veh, LRRCC1 / RFU, ARID1A / Fold change vs veh, ARID1A / RFU, ZNF146 / Fold change vs veh, ZNF146 / RFU, ZNF330 / Fold change vs veh, ZNF330 / RFU, GPN3 / Fold change vs veh, GPN3 / RFU, C9orf123 / Fold change vs veh, C9orf123 / RFU, N4BP2L2 / Fold change vs veh, N4BP2L2 / RFU, ARFIP1 / Fold change vs veh, ARFIP1 / RFU, FAM179B / Fold change vs veh, FAM179B / RFU, BCL10 / Fold change vs veh, BCL10 / RFU, UHRF1BP1L / Fold change vs veh, UHRF1BP1L / RFU, BET1 / Fold change vs veh, BET1 / RFU, CNOT2 / Fold change vs veh, CNOT2 / RFU, ZNF268 / Fold change vs veh, ZNF268 / Fold change vs veh, ZNF507 / RFU, DGCR2 / Fold change vs veh, DGCR2 / RFU, WDSUB1 / Fold change vs veh, WDSUB1 / Fold change vs veh, HSP90B1 /// MIR3652 / RFU, ADSS / Fold change vs veh, ADSS / RFU, GK / Fold change vs veh, GK / RFU, ZNF148 / Fold change vs veh, ZNF148 / RFU, TAF9 / Fold change vs veh, TAF9 / RFU, SLC1A5 / Fold change vs veh, SLC1A5 / RFU, SLMO2 / Fold change vs veh, SLMO2 / RFU, ABCC4 / Fold change vs veh, ABCC4 / RFU, LOC101060439 /// RAP1B / Fold change vs veh, LOC101060439 /// RAP1B / RFU, RFX7 / Fold change vs veh, RFX7 / RFU, GTPBP10 / Fold change vs veh, GTPBP10 / RFU, CNEP1R1 / Fold change vs veh, CNEP1R1 / RFU, BIVM-ERCC5 /// ERCC5 / Fold change vs veh, BIVM-ERCC5 /// ERCC5 / RFU, ILF3 / Fold change vs veh, ILF3 / RFU 11762660_at / Fold change /veh 11762660_at / RFU VCAN (11757783_s_at) / Fold change /veh VCAN (11757783_s_at) / RFU DDX43 (11728927_at) / Fold change /veh DDX43 (11728927_at) / RFU KRT8 (11758188_x_at) / Fold change /veh KRT8 (11758188_x_at) / RFU NKD1 (11759106_at) / Fold change /veh NKD1 (11759106_at) / RFU SRD5A1 (11742802_a_at) / Fold change /veh SRD5A1 (11742802_a_at) / RFU TPSAB1 /// TPSB2 (11721975_s_at) / Fold change /veh TPSAB1 /// TPSB2 (11721975_s_at) / RFU GSTM3 (11746129_a_at) / Fold change /veh GSTM3 (11746129_a_at) / RFU IL23R (11737362_x_at) / Fold change /veh IL23R (11737362_x_at) / RFU TMEM51 (11727254_a_at) / Fold change /veh TMEM51 (11727254_a_at) / RFU PIWIL2 (11732686_x_at) / Fold change /veh PIWIL2 (11732686_x_at) / RFU ORM1 (11744905_x_at) / Fold change /veh ORM1 (11744905_x_at) / RFU CCDC152 (11743942_at) / Fold change /veh CCDC152 (11743942_at) / RFU ECM1 (11717891_a_at) / Fold change /veh ECM1 (11717891_a_at) / RFU IL23R (11748794_a_at) / Fold change /veh IL23R (11748794_a_at) / RFU TNFAIP8L3 (11732012_x_at) / Fold change /veh TNFAIP8L3 (11732012_x_at) / RFU MBOAT4 (11741988_at) / Fold change /veh MBOAT4 (11741988_at) / RFU 11764193_at / Fold change /veh 11764193_at / RFU TMEM53 (11763286_at) / Fold change /veh TMEM53 (11763286_at) / RFU MAGEB2 (11727129_at) / Fold change /veh MAGEB2 (11727129_at) / RFU TMEM200A (11744735_a_at) / Fold change /veh TMEM200A (11744735_a_at) / RFU CCDC152 (11751479_a_at) / Fold change /veh CCDC152 (11751479_a_at) / RFU FAM211A (11726209_a_at) / Fold change /veh FAM211A (11726209_a_at) / RFU RGS16 (11746705_a_at) / Fold change /veh RGS16 (11746705_a_at) / RFU VCAN (11755009_s_at) / Fold change /veh VCAN (11755009_s_at) / RFU RHOB (11743442_s_at) / Fold change /veh RHOB (11743442_s_at) / RFU RGS16 (11720943_a_at) / Fold change /veh RGS16 (11720943_a_at) / RFU RGS16 (11720944_at) / Fold change /veh RGS16 (11720944_at) / RFU, VPS4B / Fold change vs veh, VPS4B / RFU, CREB1 / Fold change vs veh, CREB1 / RFU, DNAJC13 / Fold change vs veh, DNAJC13 / RFU, GNAQ / Fold change vs veh, GNAQ / RFU, CDK5R1 / Fold change vs veh, CDK5R1 / RFU, ZRANB3 / Fold change vs veh, ZRANB3 / RFU, CUL4A / Fold change vs veh, CUL4A / RFU, CCNY / Fold change vs veh, CCNY / RFU, UFL1 / Fold change vs veh, UFL1 / RFU, COG3 / Fold change vs veh, COG3 / RFU, DIAPH2 / Fold change vs veh, DIAPH2 / RFU, SKA2 / Fold change vs veh, SKA2 / RFU, AFF3 / Fold change vs veh, AFF3 / RFU, LMF1 / Fold change vs veh, LMF1 / RFU, IPO11 / Fold change vs veh, IPO11 / RFU, DFFB / Fold change vs veh, DFFB / RFU, FOXP1 / Fold change vs veh, FOXP1 / RFU, CARD8 / Fold change vs veh, CARD8 / RFU, STRN3 / Fold change vs veh, STRN3 / RFU, ADK / Fold change vs veh, ADK / RFU, RASSF2 / Fold change vs veh, RASSF2 / RFU, WIPF1 / Fold change vs veh, WIPF1 / RFU, LARP1B / Fold change vs veh, LARP1B / RFU, RASA1 / Fold change vs veh, RASA1 / RFU, RB1 / Fold change vs veh, RB1 / RFU, PPFIA1 / Fold change vs veh, PPFIA1 / RFU, MAT2A / Fold change vs veh, MAT2A / RFU, CCT5 / Fold change vs veh, CCT5 / RFU, WDR92 / Fold change vs veh, WDR92 / RFU, CUX1 / Fold change vs veh, CUX1 / RFU, TTC7A / Fold change vs veh, TTC7A / RFU, TMEM135 / Fold change vs veh, TMEM135 / RFU, DEPTOR / Fold change vs veh, DEPTOR / RFU, CPM / Fold change vs veh, CPM / RFU, DNAJB6 / Fold change vs veh, DNAJB6 / RFU, CACNA2D3 / Fold change vs veh, CACNA2D3 / RFU, DTX4 / Fold change vs veh, DTX4 / RFU, TFCP2 / Fold change vs veh, TFCP2 / RFU, GMCL1 /// GMCL1P1 / Fold change vs veh, GMCL1 /// GMCL1P1 / RFU, AEBP2 / Fold change vs veh, AEBP2 / RFU, SNHG1 /// SNORD22 /// SNORD25 /// SNORD26 /// SNORD27 /// SNORD28 /// SNORD29 /// SNORD31 / Fold change vs veh, SNHG1 /// SNORD22 /// SNORD25 /// SNORD26 /// SNORD27 /// SNORD28 /// SNORD29 /// SNORD31 / Fold change (Aza/veh), C12orf56 (ProbeSet 11735607_a_at) / Fold change (ACY-1035/veh), C12orf56 (ProbeSet 11735607_a_at) / Fold change (Aza/veh), FGFR1OP (ProbeSet 11751329_s_at) / Fold change (ACY-1035/veh), FGFR1OP (ProbeSet 11751329_s_at) / Fold change (Aza/veh), VPS36 (ProbeSet 11739960_a_at) / Fold change (ACY-1035/veh), VPS36 (ProbeSet 11739960_a_at) / RFU SYPL1 (11715823_x_at) / Fold change /veh SYPL1 (11715823_x_at) / RFU IGFBP7 (11715501_s_at) / Fold change /veh IGFBP7 (11715501_s_at) / RFU REEP3 (11722064_at) / Fold change /veh REEP3 (11722064_at) / RFU IGLL1 (11728026_x_at) / Fold change /veh IGLL1 (11728026_x_at): dose or concentration left out as unconfirmed
Settings: ProbeSet 11717876_a_at; LIST D

Compound: Nc1ncn([C@@H]2O[C@H](CO)[C@@H](O)[C@H]2O)c(=O)n1 [azacitidine]
- RFU, PPFIA1: 24.22 RFU
